This is an account of results in PubChem BioAssay (NCI).

What all share (test): NCI anticancer screen, dose series, 48 h
Test [1] deals with MALME-3M melanoma.
The test system of test [2] is RXF 393 renal.
In test [3] the test system is LOX IMVI melanoma.
Test [4] relates to IGROV1 ovarian.
The subject of test [5] is NCI-H23 lung.
The subject of test [6] is UO-31 renal.
Test [7] relates to SW-620 colon.
The test system of test [8] is MOLT-4 leukemia.
Test [9] relates to RPMI-8226 leukemia.
Test [10] relates to SF-268 CNS.

Structures are written as SMILES. “And” between values parts separate entries of the source, which are not always exact repeats. Equal entries are not always repeated.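 Exposure lasted 48 hours, with cells grown in 96-well plates and compounds tested at five concentrations. GI50 marks 50% less growth. The concentration for full growth arrest is given as TGI.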

Regarding `Nc1nc2c(ncn2C2OC(CO)C(O)C2O)c(=O)[nH]1` (stereo unspecified), the GI50 in [1] is 24.1 µM and 176 µM; in test [3], > 100 µM; in test [4] it was > 100 µM; in test [6], > 100 µM; in test [7], > 100 µM; in [8], 35.7 µM. Also, the GI50 in test [9] was > 100 µM and 30.8 µM; in [10], > 100 µM. Moreover, the TGI in [1] was 55.4 µM and 285 µM; in test [2], 162 µM; in [3] it was > 100 µM and 145 µM; in [4] it was > 100 µM and 170 µM; in test [5], 175 µM; in [6] it was > 100 µM and 204 µM. For the same molecule, the TGI was > 100 µM and 241 µM in test [7]; > 100 µM and 121 µM in test [8]; > 100 µM and 139 µM in test [9]; > 100 µM and 281 µM in test [10].

Consider `c1ccc2[nH]c(-c3cscn3)nc2c1`, for which the TGI in test [1], in [2], in [3], in test [4], in test [5] and in test [6] was > 100 µM in each case. Besides, the TGI in test [7], in test [8], in [9] and in test [10] was > 100 µM throughout. The GI50 in test [2] is > 100 µM and 49.1 µM; in test [6] it was > 100 µM and 25.8 µM; in test [9], > 100 µM and 31.7 µM.

Regarding `O=C(/C=C/c1ccccn1)c1ccccc1`, the GI50 in test [1] is 13.8 µM; in test [2] it was 3.17 µM; in test [3], 1.63 µM; in test [4], 3.84 µM; in [5], 16.3 µM; in test [6] it was 12.2 µM. Moreover, the GI50 in test [7] was 2.02 µM; in test [8], 3.1 µM; in test [9], 2.37 µM; in test [10] it was 19.4 µM. Also, the TGI in [1] was determined as 35.1 µM; in test [2] it was 13.1 µM; in test [3], 3.08 µM; in test [4], 85.3 µM; in test [5], 34.8 µM; in [6], 29.9 µM. Also, the TGI in [7] was 4.1 µM; in test [8], 27.6 µM; in test [9], 6.6 µM; in test [10], 36.4 µM.

As to `Cc1nc(Nc2ccc(Cl)c(Cl)c2)sc1C(/C=C/c1ccc2c(c1)OCO2)=N/Nc1ccc([N+](=O)[O-])cc1[N+](=O)[O-]`, the TGI was > 100 µM in test [1]; 67.2 µM in test [2]; > 100 µM in test [3]; > 100 µM in test [4]; > 100 µM in test [5]; > 100 µM in test [6]. Moreover, the TGI in test [7] was > 100 µM; in [8], > 56.2 µM; in test [9], > 100 µM; in test [10], > 100 µM.

For the molecule `O=C(O)c1cc2ccc(Cl)cc2c(O)c1C1=CCCCC1`, the TGI is > 100 µM in test [1]; > 100 µM in [2]; > 100 µM in test [3]; > 100 µM in [4]; 95.9 µM in [5]; > 100 µM in test [6]. Also, the TGI in test [7], in [8], in test [9] and in test [10] was > 100 µM in each case.

Consider `CNC(=O)N(CCCCC(NC(C)=O)C(=O)NCc1ccccc1)Cc1ccccc1` (stereo unspecified), for which the TGI in test [1], in [2], in test [3], in test [4], in test [5] and in test [6] was > 100 µM each time. In addition, the TGI in [7], in [8], in test [9] and in [10] was > 100 µM each time.

For `O=[N+]([O-])/C=C/c1cn(CCCCCCCCn2cc(/C=C/[N+](=O)[O-])c3ccccc32)c2ccccc12`, the TGI in test [1], in test [2], in test [3], in test [4], in test [5] and in [6] was > 10 µM in each case. Further, the TGI in [7] was > 10 µM; in [8] it was > 10 µM; in test [9], 1.11 µM; in test [10], > 10 µM.

For the molecule `NCC[PH+](c1ccccc1)c1ccccc1.NCC[PH+](c1ccccc1)c1ccccc1.[Cl-].[Pt+4]`, the GI50 in [1] is > 100 µM; in [2] it was > 100 µM; in test [3] it was > 100 µM; in test [4], 29.3 µM; in [5], > 100 µM; in test [6] it was > 100 µM. The GI50 was > 100 µM in test [7], > 51.3 µM in [8], 14.7 µM in test [9] and > 100 µM in [10]. For the same molecule, the TGI in test [1], in [2], in test [3], in test [4], in test [5] and in test [6] was > 100 µM each time. The TGI in test [7] is > 100 µM; in [8], > 100 µM; in [9], > 65.2 µM; in test [10], > 100 µM.

`c1ccc2c(c1)n1nnnc1c1nnnn21`: the TGI in [1], in [2], in test [3], in [4], in [5] and in test [6] was > 100 µM throughout. In addition, the TGI in [7], in [8], in [9] and in test [10] was > 100 µM in each case.

Turning to `CNc1ccc(CSc2ccc(C)cc2)cc1`, the GI50 is 31.5 µM in test [1]; 11.4 µM in [2]; 14.5 µM in test [3]; 13 µM in test [4]; 25 µM in test [5]; 1.16 µM in [6]. The GI50 in test [7] was 18.6 µM; in test [8], 2.22 µM; in [9], 1.52 µM; in [10], 14.7 µM. Further, the TGI was > 100 µM in test [1]; 87.2 µM in test [2]; > 100 µM in [3]; > 100 µM in test [4]; > 100 µM in test [5]; 4.32 µM in test [6]. Besides, the TGI in test [7] was > 100 µM; in test [8] it was 29.3 µM; in test [9], 21.6 µM; in test [10], > 100 µM.
